According to patent US20260250318A1, “COMPOSITIONS AND METHODS FOR CROSSING THE BLOOD BRAIN BARRIER” (VOYAGER THERAPEUTICS, INC., priority 2022, published 2026):

Key:
[1] = test system: brains, heart, liver, muscle, and DRG of the NHPs; test: Maturation of TTM-001 and TTM-002 capsids, NGS enrichment in NHP tissues; format: in vivo; settings: relative to AAV9 control
Outline: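 Variants carry mutations within and flanking the loop IV peptide insert: positions 450–466 were triplet-randomized, while positions 449–466 received low-frequency point mutations. The combined pool went into two NHPs, and each peptide was scored by NGS enrichment ratio against AAV9.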

brain = test: Matured TTM-001 and TTM-002 variants, NGS enrichment in mouse brain; format: in vivo, mice; settings: relative to AAV9 control
[2] = NGS fold-enrichment of RNA, NHP brain
[3] = NGS fold-enrichment, DRG of NHPs
[4] = NGS fold-enrichment, NHP liver DNA
[5] = NGS fold-enrichment, NHP liver RNA
[6] = NGS fold-enrichment, NHP muscle
[7] = NGS fold-enrichment, RNA, brain of NHPs
[8] = NGS fold-enrichment, heart of NHPs
[9] = NGS fold-enrichment, liver DNA of NHPs
[10] = NGS fold-enrichment, liver RNA of NHPs
[11] = NGS fold-enrichment, muscle of NHPs
[12] = NGS fold-enrichment, brain of mice
[13] = NGS fold-enrichment, mouse brain
[14] = NGS fold-enrichment of matured AAV capsid variants, NHP brain, RNA

Sequence | Fold Enrichment relative to AAV9, Brain (NHP) [1, 2] | Fold Enrichment relative to AAV9, DRG (NHP) [1, 3] | Fold Enrichment relative to AAV9, DRG (NHP) ([1]; NGS fold-enrichment, NHP DRG) | Fold Enrichment relative to AAV9, Heart (NHP) ([1]; NGS fold-enrichment, NHP heart) | Fold Enrichment relative to AAV9, Liver DNA (NHP) [1, 4] | Fold Enrichment relative to AAV9, Liver RNA (NHP) [1, 5] | Fold Enrichment relative to AAV9, Muscle (NHP) [1, 6] | Fold Enrichment relative to AAV9, Brain (NHP) [1, 7] | Fold Enrichment relative to AAV9, Heart (NHP) [1, 8] | Fold Enrichment relative to AAV9, Liver DNA (NHP) [1, 9] | Fold Enrichment relative to AAV9, Liver RNA (NHP) [1, 10] | Fold Enrichment relative to AAV9, Muscle (NHP) [1, 11] | Fold Enrichment relative to AAV9, Brain (Mouse) (brain; [12]) | Fold Enrichment relative to AAV9, Brain (Mouse) (brain; [13]) | also measured
KSINESGSPHSKAQNQQI | 113.833 fold | 0.000 fold | 0.000 fold | 0.000 fold | 0.000 fold | 0.000 fold | 0.000 fold | 113.833 fold | 0.000 fold | 0.000 fold | 0.000 fold | 0.000 fold | 67.649 fold | 67.649 fold | –
KSINGGGSPHSKAQYQQT | – | – | – | – | – | – | – | – | – | – | – | – | – | – | Fold Enrichment relative to AAV9, Brain (NHP) [1, 14]: 54.612 fold; Fold Enrichment relative to AAV9, DRG (NHP) ([1]; NHP DRG): 0.000 fold; Fold Enrichment relative to AAV9, Heart (NHP) ([1]; NHP heart): 0.000 fold; Fold Enrichment relative to AAV9, Liver DNA (NHP) ([1]; NHP liver, DNA): 0.010 fold; Fold Enrichment relative to AAV9, Liver RNA (NHP) ([1]; NHP liver, RNA): 0.105 fold; Fold Enrichment relative to AAV9, Muscle (NHP) ([1]; NHP muscle): 0.000 fold; Fold Enrichment relative to AAV9, Brain (Mouse) (brain; mouse brain): 65.952 fold
KSINGHDSPHKSGQIQHT | 87.598 fold | – | 0.000 fold | 0.480 fold | 0.347 fold | 0.714 fold | 0.000 fold | – | – | – | – | – | – | 13.872 fold | –
KSINGHDSPHKSGQRQHT | 80.132 fold | – | 0.000 fold | 0.357 fold | 0.000 fold | 0.000 fold | 0.000 fold | – | – | – | – | – | – | 9.851 fold | –
KSINGHDSPHKSGQYQHT | 88.195 fold | – | 0.000 fold | 0.099 fold | 0.149 fold | 0.000 fold | 0.000 fold | – | – | – | – | – | – | 14.485 fold | –
KSINGSGSPHSKAPNLQT | – | – | – | – | – | – | – | – | – | – | – | – | – | – | Fold Enrichment relative to AAV9, Brain (NHP) [1, 14]: 51.812 fold; Fold Enrichment relative to AAV9, DRG (NHP) ([1]; NHP DRG): 0.000 fold; Fold Enrichment relative to AAV9, Heart (NHP) ([1]; NHP heart): 0.256 fold; Fold Enrichment relative to AAV9, Liver DNA (NHP) ([1]; NHP liver, DNA): 0.139 fold; Fold Enrichment relative to AAV9, Liver RNA (NHP) ([1]; NHP liver, RNA): 0.085 fold; Fold Enrichment relative to AAV9, Muscle (NHP) ([1]; NHP muscle): 0.000 fold; Fold Enrichment relative to AAV9, Brain (Mouse) (brain; mouse brain): 59.270 fold
KSINGSGSPHSKAQAQQT | – | 0.000 fold | – | – | – | – | – | 66.464 fold | 0.711 fold | 0.111 fold | 0.148 fold | 0.000 fold | 78.451 fold | – | –
KSINGSGSPHSKTQSQQT | – | – | – | – | – | – | – | – | – | – | – | – | – | – | Fold Enrichment relative to AAV9, Brain (NHP) [1, 14]: 58.608 fold; Fold Enrichment relative to AAV9, DRG (NHP) ([1]; NHP DRG): 0.000 fold; Fold Enrichment relative to AAV9, Heart (NHP) ([1]; NHP heart): 3.017 fold; Fold Enrichment relative to AAV9, Liver DNA (NHP) ([1]; NHP liver, DNA): 0.017 fold; Fold Enrichment relative to AAV9, Liver RNA (NHP) ([1]; NHP liver, RNA): 0.155 fold; Fold Enrichment relative to AAV9, Muscle (NHP) ([1]; NHP muscle): 0.000 fold; Fold Enrichment relative to AAV9, Brain (Mouse) (brain; mouse brain): 71.397 fold
KSINGYDSPHKSGQTQQT | 79.227 fold | – | 1.817 fold | 0.226 fold | 1.148 fold | 0.000 fold | 0.000 fold | – | – | – | – | – | – | 4.497 fold | –
KSIYGHESPHKSGQNQQS | 90.947 fold | – | 0.817 fold | 0.310 fold | 0.243 fold | 0.000 fold | 0.000 fold | – | – | – | – | – | – | 8.064 fold | –
KSLNGSGSPHTKAQNQQT | 81.515 fold | – | 0.197 fold | 0.333 fold | 0.085 fold | 0.000 fold | 0.000 fold | – | – | – | – | – | – | 45.140 fold | –
KSVNGNGSPHSKAQNQQT | 99.385 fold | 0.000 fold | 0.000 fold | 1.329 fold | 0.079 fold | 0.359 fold | 0.000 fold | 99.385 fold | 1.329 fold | 0.079 fold | 0.359 fold | 0.000 fold | 51.016 fold | 51.016 fold | –
KTANGSGSPHSKAQYQQT | – | 0.000 fold | – | – | – | – | – | 73.038 fold | 0.000 fold | 0.160 fold | 0.153 fold | 0.000 fold | 139.451 fold | – | –
KTCNASGSPHSKAQNQQT | – | – | – | – | – | – | – | – | – | – | – | – | – | – | Fold Enrichment relative to AAV9, Brain (NHP) [1, 14]: 52.998 fold; Fold Enrichment relative to AAV9, DRG (NHP) ([1]; NHP DRG): 0.000 fold; Fold Enrichment relative to AAV9, Heart (NHP) ([1]; NHP heart): 0.011 fold; Fold Enrichment relative to AAV9, Liver DNA (NHP) ([1]; NHP liver, DNA): 0.141 fold; Fold Enrichment relative to AAV9, Liver RNA (NHP) ([1]; NHP liver, RNA): 0.897 fold; Fold Enrichment relative to AAV9, Muscle (NHP) ([1]; NHP muscle): 0.000 fold; Fold Enrichment relative to AAV9, Brain (Mouse) (brain; mouse brain): 67.934 fold
KTCNGHDSPHKSGRNQQT | 94.616 fold | – | 0.000 fold | 0.025 fold | 0.128 fold | 0.000 fold | 0.000 fold | – | – | – | – | – | – | 12.496 fold | –
KTCNKSGSPHSKAQNQQT | 83.992 fold | 0.000 fold | 0.000 fold | 0.000 fold | 0.000 fold | 0.283 fold | 0.165 fold | 83.992 fold | 0.000 fold | 0.000 fold | 0.283 fold | 0.165 fold | 119.496 fold | 119.496 fold | –
KTDAGHDSPHKSGQNQQT | 88.924 fold | – | 0.000 fold | 0.013 fold | 0.070 fold | 1.076 fold | 0.000 fold | – | – | – | – | – | – | 18.107 fold | –
KTDKGSGSPHSKAQNQQT | 94.572 fold | – | 0.000 fold | 0.037 fold | 0.367 fold | 0.951 fold | 0.000 fold | – | – | – | – | – | – | 47.888 fold | –
KTDKMSGSPHSKAQNQQT | – | 0.000 fold | – | – | – | – | – | 68.167 fold | 0.000 fold | 0.205 fold | 0.017 fold | 0.000 fold | 88.234 fold | – | –
KTDKNSGSPHSKAQNQQT | – | 0.000 fold | – | – | – | – | – | 70.964 fold | 0.000 fold | 0.123 fold | 0.070 fold | 0.000 fold | 62.932 fold | – | –
